Common to all, as to format: functional
Experiment [1] is described as follows: Antioxidant activity assessed as AAPH-induced alkoxyl radical scavenging activity by ESR spin trapping method.
The nature of experiment [2]: Antioxidant activity assessed as riboflavin/EDTA-induced superoxide anion radical scavenging activity by ESR spin trapping method.
The nature of experiment [3]: Antioxidant activity assessed as hydroxyl radical scavenging activity.
A short description of experiment [4]: Antioxidant activity assessed as t-butylhyroperoxide-induced alkylperoxyl radical scavenging activity by ESR spin trapping method relative to CYPMPO.
Experiment [5] can be described thus: Antioxidant activity assessed as DMPO/H2O2-induced hydroxyl radical scavenging activity by fast-flow EPR technique.
A short description of experiment [6]: Antioxidant activity assessed as AAPH-induced alkoxyl radical scavenging activity by ESR spin trapping method relative to CYPMPO.
The nature of experiment [7]: Antioxidant activity assessed as rosebengal-induced singlet oxygen radical scavenging activity by ESR spin trapping method relative to 4-OH-TEMP.
Experiment [8] is described as follows: Antioxidant activity assessed as riboflavin/EDTA-induced superoxide anion radical scavenging activity by ESR spin trapping method relative to CYPMPO.
A short description of experiment [9]: Antioxidant activity assessed as rosebengal-induced singlet oxygen radical scavenging activity by ESR spin trapping method.
Experiment [10] can be described thus: Antioxidant activity assessed as DMSO/H2O2-induced methyl radical scavenging activity by ESR spin trapping method relative to DMPO.
Experiment [11] is described as follows: Antioxidant activity assessed as H2O2-induced hydroxyl radical scavenging activity by ESR spin trapping method relative to CYPMPO.
Experiment [12] can be described thus: Antioxidant activity assessed as DMSO/H2O2-induced methyl radical scavenging activity by ESR spin trapping method.
The nature of experiment [13]: Antioxidant activity assessed as H2O2-induced hydroxyl radical scavenging activity by ESR spin trapping method.
Experiment [14] can be described thus: Antioxidant activity assessed as t-butylhyroperoxide-induced alkylperoxyl radical scavenging activity by ESR spin trapping method.

Each structure is given as a SMILES string.

Regarding `CC1(C)COP(=O)(C2(C)CCC=[N+]2[O-])OC1` (stereo not given), the K in [1] stood at 2.27 ×10⁴ /M/s; in experiment [2], 48 M⁻¹ s⁻¹.

For the compound `CC1=NN(c2ccccc2)C(=O)C1`, the K in experiment [3] was found to be 1.4 ×10¹⁰ /M/s; in experiment [1], 3.16 ×10⁶ /M/s; in experiment [5] it was 3 ×10¹⁰ /M/s; in experiment [2], 2.93 ×10³ /M/s; in experiment [9] it was 27.5 ×10⁶ /M/s; in experiment [12] it was 30 ×10⁶ /M/s. In addition, in experiment [13], the K was determined as 298 ×10⁹ /M/s. For the same compound, the Ratio was found to be 39 in experiment [4]; 139 in [6]; 306 in experiment [7]; 61.1 in experiment [8]; 2.14 in [10]; 28.7 in experiment [11].

For the compound `Oc1nc(O)c2nc(O)[nH]c2n1`, the Ratio in experiment [4] is 0; in [6], 436; in [7] it was 25.7; in experiment [8] it was 222; in [10], 0; in [11], 0.894. In addition, the K in experiment [1] amounted to 9.9 ×10⁶ /M/s; in experiment [2] it was 10.7 ×10³ /M/s; in [9], 2.31 ×10⁶ /M/s; in experiment [12] it was 0 M⁻¹ s⁻¹; in experiment [14], 0 M⁻¹ s⁻¹; in [13], 9.3 ×10⁹ /M/s.

Turning to `C[C@@H]1O[C@@H](OC[C@H]2O[C@@H](Oc3c(-c4ccc(O)c(O)c4)oc4cc(O)cc(O)c4c3=O)[C@H](O)[C@@H](O)[C@@H]2O)[C@H](O)[C@H](O)[C@H]1O`, the K in experiment [1] was found to be 6.9 ×10⁶ /M/s; in [2] it was 1.5 ×10⁴ /M/s; in experiment [9], 3.5 ×10⁸ /M/s.

On to `Cc1c(C)c2c(c(C)c1O)CCC(C)(C(=O)O)O2` (stereo not given), for which the Ratio was determined as 0 in experiment [4]; 214 in experiment [6]; 692 in experiment [7]; 43.8 in experiment [8]; 0.337 in experiment [10]; 23.8 in experiment [11]. In addition, the K in experiment [1] was 4.83 ×10⁶ /M/s; in experiment [2] it was 2.1 ×10³ /M/s; in experiment [9] it was 62.2 ×10⁶ /M/s; in experiment [12], 4.72 ×10⁶ /M/s; in experiment [14], 0 M⁻¹ s⁻¹; in experiment [13], 24.8 ×10⁹ /M/s.

Regarding `N[C@@H](CCC(=O)N[C@@H](CS)C(=O)NCC(=O)O)C(=O)O`, the Ratio in experiment [4] was 4.09; in experiment [6], 121; in experiment [7] it was 10400; in experiment [8] it was 23.3; in [10], 0.142; in experiment [11], 1.59. The K worked out at 2.73 ×10⁶ /M/s in experiment [1]; 1.12 ×10³ /M/s in [2]; 939 ×10⁶ /M/s in experiment [9]; 1.99 ×10⁶ /M/s in [12]; 16.5 ×10⁹ /M/s in experiment [13].

For the compound `CC1(C)CCC=[N+]1[O-]`, the K in [12] turned out to be 1.4 ×10⁷ /M/s; in experiment [13] it was 2.8 ×10⁹ /M/s.
